IC50, EC (33% CD11b positive cells) and melting point data for 27 compounds are collected here from patent US6884808B2, “Heterocycle-containing carboxylic acid derivative and drug containing the same” (Eisai Co. Ltd., priority 1995, dated 2005).

The target in the first data set is T1, Retinoic acid receptor: RAR (Homo sapiens, UniProt P10276).
T1 construct: using a fraction extracted from the nucleus of HL60; endogenous in cells; host or cells: HL60 cells, nucleus-extracted fraction (0.4 M KCl extract, 100,000 x g supernatant)
T1 sequence (P10276 1-462): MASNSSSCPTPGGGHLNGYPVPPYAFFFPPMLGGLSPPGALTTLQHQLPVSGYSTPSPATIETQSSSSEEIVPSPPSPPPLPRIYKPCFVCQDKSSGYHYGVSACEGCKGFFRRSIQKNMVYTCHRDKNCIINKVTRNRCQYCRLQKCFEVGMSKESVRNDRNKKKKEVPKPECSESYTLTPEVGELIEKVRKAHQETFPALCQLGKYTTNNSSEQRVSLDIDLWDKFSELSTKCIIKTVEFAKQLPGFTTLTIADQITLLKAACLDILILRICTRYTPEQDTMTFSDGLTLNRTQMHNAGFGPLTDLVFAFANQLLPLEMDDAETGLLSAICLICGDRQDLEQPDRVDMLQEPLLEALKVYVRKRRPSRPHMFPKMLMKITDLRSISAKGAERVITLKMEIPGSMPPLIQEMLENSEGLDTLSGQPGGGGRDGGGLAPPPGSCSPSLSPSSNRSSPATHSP
Put plainly: Receptor binding assay by using human promyelocytic leukemia cells HL60 (nucleus-extracted fraction, 3H-all-trans retinoic acid). The note with it: 50% inhibition concentration of 3H-all-trans retinoic acid binding, 4° C. for 16 hours. As for the experimental part:
Receptor binding assay by using human promyelocytic leukemia cells HL60
The nucleus-extracted fraction was prepared as described below.
In 15 ml of Solution A [5 mM sodium phosphate (pH 7.4), 10 mM monothioglycerol, 10% v/v glycerol, 1 mM phenylmethyl sulfonyl fluoride (PMSF), 10 μg/ml of aprotinin and 25 μg/ml of leupeptin], HL60 cells (5×10^8) were suspended. The resulting suspension was homogenized, followed by centrifugal separation to remove the supernatant. The precipitate so obtained was suspended in 15 ml of Solution B [10 mM tris-HCl (Tris-HCl) (pH 8.5), 10 mM monothioglycerol, 10% (v/v) glycerol, 1 mM PMSF, 10 μg/ml aprotinin, 25 μg/ml leupeptin and 0.4 M KC1]. After being allowed to stand at 4° C. for one hour, the resulting suspension was subjected to ultracentrifugation at 100,000 xg and 4° C. for one hour.
Receptor binding assay was carried out as follows:
The resulting mixture was allowed to stand at 4° C. for 16 hours. […] The count of the supernatant was determined by a scintillation counter.
The compound `CC(C)c1cc(-c2ccc(-c3ccc(C(=O)O)cc3)[nH]2)nn1C(C)(C)C` [Compound of Ex. 99, 4-{2-{5-[3-(1-tert-Butyl-5-isopropylpyrazolyl)]pyrrolyl}}benzoic acid] had an IC50 of 3.4 nM. That is a single-digit nanomolar value.

The test system of another data set is HL60 cells. Put plainly: Differentiation and induction effects on HL60 cells (CD11b positive cells, flow cytometry). It counts as cell-based. The following applies: Homo sapiens, HL-60, 120 h; concentration at which the existing ratio of CD11b positive cells becomes 33%; cultivation for 5 days; read-out: Differentiation and induction effects of HL60 cells ED1/3. The text has this:
Differentiation and Induction Effects on HL60 Cells
It is known that human-derived promyelocytic leukemia cell strains HL60 differentiate into the corresponding granulocytic cells in the presence of all-trans retinoic acid [Breitman, T. Selonick., S. and Colling, S. Proc. Natl. Acad. Sci., 77, 2936(1980)]. In general, cells after differentiation have come to express specific differentiated antigens on their surface. When the HL60 cells are differentiated into granulocytic cells, CD11b which is a differential antigen between granulocytes and monocytes is expressed on the surface of the cells [Fontana, J A., Reppuci, A. Durham, J P. and Mirand, D. Cancer Res. 46, 2469-2473(1986)]. Effects of the invention compound on the differentiation and induction into granulocyte cells were studied by making use of the above-described phenomenon.
HL60 cells were cultured and kept in RPMI 1640 (a medium formulated by Rosewell Park Memorial Institute) to which 10% bovine fetal serum, 1 mM sodium […], 50 μM β-mercaptoethanol, 100 IU/ml of penicillin and 100 μg/ml of streptomycin had been added.
On each well of a 24-well plate, a 1 ml portion of the suspension containing HL60 in an amount of 1×10^5 […] was seeded. The invention compound was then added thereto at varied concentrations, followed by cultivation for 5 days in a 5% CO2-air incubator. After cultivation, the cells of each well were collected in a test tube, to which an FITC-labeled monoclonal antibody against Cd11b, that is, a granulocyte-monocyte specific antigen was added. The cells were then immobilized with 0.2% paraformaldehyde. The existing ratio of CD11b positive cells in the vial HL60 cell group present in each well was determined using flow cytometry [Miller, L J., Schwarting, R. and Springer, T A. J. Immunol. 137, 2891-2900(1986)]. The existing ratios of CD11b positive cells-of-compounds which will be described below were increased according to the concentration. The concentration at which the existing ratio of the positive cells becomes 33% is defined as ED1/3.
Background: A flow cytometer gives signals particle by particle.
Turning to `CC(C)c1cc(-c2ccc(-c3ccc(C(=O)O)cc3)[nH]2)nn1C(C)(C)C` [Compound of Ex. 99, 4-{2-{5-[3-(1-tert-Butyl-5-isopropylpyrazolyl)]pyrrolyl}}benzoic acid], the EC (33% CD11b positive cells) is 4.7e-05 µM.
Same read-out and setting: under `CC1=C(/C=C/C(C)=C/C=C/C(C)=C/C(=O)O)C(C)(C)CCC1` [All-trans-retinoic acid, reference compound] stands 0.0018 µM.

System in a further data set: not given
Assay: not given
Conditions: not given
Consider `CC(C)c1ncc(-c2ccc(-c3ccc(C(=O)O)cc3)s2)nc1C(C)C` [Example 46, 4-[2-[5-[2-(5,6,-Diisopropylpyrazinyl)]thienyl]]benzoic acid], for which the melting point lay within 270 to 272 °C.
Same read-out and setting: as for `CC(C)c1ncc(-c2cc(-c3ccc(C(=O)O)cc3)c[nH]2)nc1C(C)C` [Example 27, 4-[4-[2-[2-(5,6-Diisopropylpyrazinyl)]pyrrolyl]]benzoic acid], the figure is 245 °C (dec.).
Still for that read-out and setting: under `CC(C)c1ncc(-c2cc(-c3ccc(C(=O)O)cc3)cs2)nc1C(C)C` [Example 30, 4-[4-[2-[2-(5,6-Diisopropylpyrazinyl)]thienyl]]benzoic acid] stands 226 to 229 °C; under `CC(C)c1ncc(-c2cc(-c3ccc(C(=O)O)cc3)co2)nc1C(C)C` [Example 38, 4-[4-[2-[2-(5,6-Diisopropylpyrazinyl)]furyl]]benzoic acid], 215 to 218 °C.
The same measure, in the same setting: under `CC1(C)CCC(C)(C)c2nc(-c3cc(-c4ccc(C(=O)O)cc4)cn3Cc3cccnc3)cnc21` [Example 41, 4-[4-[2-[2-(5,6,7,8-tetrahydro-5,5,8,8-tetramethylquinoxalyl)]-1-(3-pyridylmethyl)pyrrolyl]]benzoic acid] stands 263 to 266 °C.
With `CC(C)n1cc(-c2ccc(C(=O)O)cc2)cc1-c1cnc2c(n1)C(C)(C)CCC2(C)C` [Example 33, 4-[4-[2-[2-(5,6,7,8-tetrahydro-5,5,8,8-tetramethylquinoxalyl)]-1-isopropylpyrrolyl]]benzoic acid], the melting point was 225 to 227 °C.
Same read-out and setting: under `Cn1cc(-c2ccc(C(=O)O)cc2)cc1-c1cnc2c(n1)C(C)(C)CC2(C)C` [Example 35, 4-[4-[2-[2-(5,5,7,7-Tetramethylcyclopenta[b]pyrazinyl)]-1-methylpyrrolyl]]benzoic acid] stands 250 °C (dec.); under `CC1(C)CC(C)(C)c2nc(-c3cc(-c4ccc(C(=O)O)cc4)co3)cnc21` [Example 39, 4-[4-[2-[2-(5,5,7,7-Tetramethylcyclopenta[b]pyrazinyl)]-furyl]]benzoic acid], 250 to 252 °C; under `CC1(C)CC(C)(C)c2nc(C(=O)Nc3ccc(C(=O)O)cc3)cnc21` [Example 89, 4-(5,5,7,7-Tetramethyl-2-cyclopenta[b]pyrazinecarbamoyl)benzoic acid], 236 to 238 °C.
The same measure, in the same setting: as for `Cc1sc(-c2cnc3c(n2)C(C)(C)CCC3(C)C)cc1-c1ccc(C(=O)O)cc1` [Example 32, 4-[3-[5-[2-(5,6,7,8-Tetrahydro-5,5,8,8-tetramethylquinoxalyl)]-2-methylthienyl]]benzo acid], the figure is 215 to 217 °C; as for `CC(C)c1nnc(C(=O)Nc2ccc(C(=O)O)cc2)nc1C(C)C` [Example 91, 4-(5,6-Diisopropyl-3-[1,2,4]triazinecarbamoyl)benzoic acid], 182 to 184 °C.
On the same count and under the same terms, under `CC1(C)CC(C)(C)c2nc(-c3cc(-c4ccc(C(=O)O)cc4)c[nH]3)cnc21` [Example 28, 4-[4-[2-[2-(5,5,7,7-Tetramethylcyclopenta[b]pyrazinyl)]pyrrolyl]]benzoic acid] stands 145 to 147 °C; under `CC(C)c1ncc(-c2ccc(-c3ccc(C(=O)O)cc3)o2)nc1C(C)C` [Example 48, 4-[2-[5-[2-(5,6-Diisopropropylpyrazinyl)]furyl]]benzoic acid], 260 to 262 °C.
The compound `Cc1c(-c2ccc(C(=O)O)cc2)cc(-c2cnc3c(n2)C(C)(C)CCC3(C)C)n1C` [Example 37] had a melting point of 265 to 267 °C.
In turn, `O=C(O)c1ccc(NC(=O)c2cnc(C3CCCC3)c(C3CCCC3)n2)cc1` [Example 90, 4-(2,3-Dicyclopentyl-2-pyrazinecarbamoyl)benzoic acid] yielded a melting point of 248 to 250 °C.
As for `Cn1c(-c2ccc(C(=O)O)cc2)ccc1-c1cnc2c(n1)C(C)(C)CC2(C)C` [Example 50, 4-[2-[5-[2-(5,5,7,7-Tetramethylcyclopenta[b]pyrazinyl)]-1-methylpyrrolyl]]benzoic acid], the melting point fell in the range of 218 to 220 °C.
As to `CC1(C)CC(C)(C)c2nc(-c3cc(-c4ccc(C(=O)O)cc4)cs3)cnc21` [Example 31, 4-[4-[2-[2-(5,5,7,7-Tetramethylcyclopenta[b]pyrazinyl)]thienyl]]benzoic acid], the melting point was 222 °C (dec.).
Still for that read-out and setting: under `Cc1[nH]c(-c2cnc3c(n2)C(C)(C)CCC3(C)C)cc1-c1ccc(C(=O)O)cc1` [Example 29, 4-[3-[5-[2-(5,6,7,8-Tetrahydro-5,5,8,8-tetramethylquinoxalyl)]-2-methylpyrrolyl]]benzoic acid] stands 248 to 250 °C.
Still for that read-out and setting: under `Cc1oc(-c2cnc3c(n2)C(C)(C)CCC3(C)C)cc1-c1ccc(C(=O)O)cc1` [Example 40, 4-[3-[5-[2-(5,6,7,8-Tetrahydro-5,5,8,8-tetramethylquinoxalyl)]-2-methylfuryl]]benzoic acid] stands 270 to 272 °C.
In turn, `CC1(C)CCC(C)(C)c2nc(C(=O)Nc3ccc(C(=O)O)cc3)cnc21` [Example 88, 4-(5,6,7,8-Tetrahydro-5,5,8,8-tetramethyl-2-quinoxalinecarbamoyl)benzoic acid] yielded a melting point of 257 to 259 °C.
Compound `CCn1cc(-c2ccc(C(=O)O)cc2)cc1-c1cnc(C(C)C)c(C(C)C)n1` [Example 36, 4-[4-[2-[2-(5,6-Diisopropylpyrazinyl)]-1-ethylpyrrolyl]]benzoic acid] registered a melting point of 272 to 274 °C.
`CC1(C)CC(C)(C)c2nc(-c3ccc(-c4ccc(C(=O)O)cc4)s3)cnc21` [Example 47, 4-[2-[5-[2-(5,5,7,7-Tetramethylcyclopenta[b]pyrazinyl)]-thienyl]]benzoic acid]: the melting point was 275 °C (dec.).
Same read-out and setting: under `CC1(C)CC(C)(C)c2nc(-c3ccc(-c4ccc(C(=O)O)cc4)o3)cnc21` [Example 49, 4-[2-[5-[2-(5,5,7,7-Tetramethylcyclopenta[b]pyrazinyl)]-furyl]]benzoic acid] stands 238 to 240 °C; under `CC1(C)CCC(C)(C)c2nc(-c3ccc(-c4ccc(C(=O)O)cn4)[nH]3)cnc21` [Example 45, 6-[2-[5-[2-(5,6,7,8-Tetrahydro-5,5,8,8-tetramethylquinoxalyl)]pyrrolyl]]nicotinic acid], 278 °C (dec.); under `CC(C)c1ncc(-c2ccc(-c3ccc(C(=O)O)cc3)n2C(C)C)nc1C(C)C` [Example 51, 4-[2-[5-[2-(5,6-Diisopropylpyrazinyl)]-1-isopropylpyrrolyl]]benzoic acid], 215 °C (dec.).

One may read the IC50 as the concentration needed to halve the response being measured. Read a low IC50 as greater potency. In general, melting point refers to the temperature of the solid-liquid transition.
